Settings: Liquid, Ebulliometric method (Recirculating still)

CCCCCCO [hexan-1-ol]
Settings | vapor or sublimation pressure [kPa]
391.07 K | 25
395.62 K | 30
399.65 K | 35
403.15 K | 40
406.36 K | 45
409.25 K | 50
411.92 K | 55
414.44 K | 60
416.75 K | 65
418.98 K | 70
421.05 K | 75
423.01 K | 80
424.87 K | 85
426.69 K | 90

CCCCCCOC(C)=O [hexyl ethanoate]
Settings | vapor or sublimation pressure [kPa]
397.97 K | 25
403.36 K | 30
408.02 K | 35
412.14 K | 40
416.02 K | 45
419.47 K | 50
422.59 K | 55
425.57 K | 60
428.26 K | 65
430.93 K | 70
433.38 K | 75
435.68 K | 80
437.92 K | 85
439.98 K | 90

Reference: the NIST ThermoML archive (doi:10.1021/je050141m)
